Where no end group is shown, it is not given here.

The test system of assay [1] is lung fibroblasts isolated from bleomycin-treated mice. In words: MTT cell viability of lung fibroblasts from saline- or bleomycin-treated mice. The assay is classed as cell-based. The following applies: fibroblasts from bleomycin-treated mice compared to those from saline-treated mice. The protocol:
FIGS. 7A-7B: (FIG. 7A) Western blots analysis of phospho-MARCKS, phospho-AKT and α-SMA expression in lung fibroblast cells isolated from saline- or bleomycin-treated mice after 48 hours of treatment with control or MPS peptides (100 μM). (FIG. 7B) Effect of MPS peptide on cell viability of lung fibroblasts isolated from saline- (mFb-Saline) or bleomycin-treated (mFb-Bleomycin) mice (n=4; *, p<0.05).
MPS peptide potentially serves as an antifibrotic agent in bleomycin-induced pulmonary fibrosis. Bleomycin remains the standard agent for induction of experimental pulmonary fibrosis in animals^23. Thus, 8-week-old female C57BL/6J mice received saline or bleomycin intratracheally (33 μg in […] of saline) as previously described^23. Lung specimens from bleomycin- or saline-treated mice were collected and subjected to immunofluorescence staining. […] Next, lung fibroblast cells isolated from saline- or bleomycin-treated mice (two mice fibroblast cell lines were gifts from Dr. Sem H. Phan, University of Michigan School of Medicine, MI) were incubated with either 100 μM control or MPS peptide for 48 hours. […] The feasibility of the MPS peptide as an antifibrotic agent in a bleomycin-induced pulmonary fibrosis was tested. […] Saline- and bleomycin-exposed mice then were treated with either PBS or MPS peptide (28 mg/kg) intraperitoneally every other day. […]

For assay [2], the system named is bleomycin-induced pulmonary fibrosis. The assay can be described thus: Bleomycin-induced pulmonary fibrosis. The class given is in vivo, C57BL/6J mice. The settings on record: 28 mg/kg i.p. every other day, Masson's trichrome staining after 22 days. How it is done:
FIGS. 20A and 20B show suppressive effects of MPS peptide on pulmonary fibrosis in vivo. C57BL/6 mice were intraperitoneally given either PBS, nintedanib (28 mg/kg), MPS peptide (28 mg/kg) or MPS-12042 (7 mg/kg) at the dosage of every two days after 9 days of intratracheal exposure with one shot of saline or bleomycin (33 μg in […] of saline, n=5). (FIG. 20A) Representative Masson trichrome and immunohistochemical staining of phospho-MARCKS (Ser159/163) and phospho-AKT (Ser473) (n=6). (FIG. 20B) Hydroxyproline level in the left lung of mice as described above was determined by a hydroxyproline ELISA assay (mean±SD, *p<0.05).
MPS peptide potentially serves as an antifibrotic agent in bleomycin-induced pulmonary fibrosis. Bleomycin remains the standard agent for induction of experimental pulmonary fibrosis in animals^23. Thus, 8-week-old female C57BL/6J mice received saline or bleomycin intratracheally (33 μg in […] of saline) as previously described^23. Lung specimens from bleomycin- or saline-treated mice were collected and subjected to immunofluorescence staining. […] Next, lung fibroblast cells isolated from saline- or bleomycin-treated mice (two mice fibroblast cell lines were gifts from Dr. Sem H. Phan, University of Michigan School of Medicine, MI) were incubated with either 100 μM control or MPS peptide for 48 hours. […]

In assay [3] the test system is PIP3. The assay can be described thus: Immunocytochemistry with anti-PIP3 antibodies in IPF lung fibroblast cells. The assay is classed as cell-based, human. The settings on record: 100 μM, 12 hours. The protocol:
Multiple IPF lung fibroblast cells were treated with either PBS or 100 μM of MPS peptide for 12 hours and then subjected to immunocytochemistry using anti-PIP3 antibodies. Representative images are shown (n=3). Scale bar: 20 μm.
MARCKS levels and activity (phospho-MARCKS) were correlated with higher pro-fibrotic activity including cell proliferation, extracellular matrix production, invasiveness, and fibroblast differentiation. Upon treatment with MPS peptides, which target MARCKS activity, Applicant observes attentuation of these activities. The second significant finding was that MARCKS mediates these profibrotic effects through through the PI3K/AKT pathway. […] Targeting of these activities with MPS peptide results in decreased AKT activity and downstream pro-fibrotic signals. The mechanism through which this occurs is through regulation of PIP2 availability at the cell membrane. In an unphosprylated state, MARCKS is able to bind PIP2 at the cell membrane, preventing PI3K proteins from converting PIP2 into PIP3 and effecting downstream AKT activity. Upon phosphorylation, MARCKS is released from the cell membrane into the cytosol, freeing up PIP2 and allowing PI3K to convert PIP2 into PIP3. […] Applicant obtained multiple IPF lung fibroblast cells and treated them with either PBS or 100 μM MPS peptide for 12 hours and subjected to immunocytochemistry utilizing anti-PIP3 antibody.

Assay [4] concerns primary IPF fibroblast cells. The assay can be described thus: Cell motility and colony-forming ability of primary IPF fibroblasts. The assay is classed as cell-based, human. How it is done: FIGS. 4A-4B: MARCKS inhibition using MPS peptide reduced primary IPF fibroblast cell motility (FIG. 4A) and colony-forming ability (FIG. 4B) n=4; *, p<0.05.
An in vitro cell migration assay was performed as previously described^13, 14 using Transwell chambers (8-μm pore size; Costar, Cambridge, Mass.). Briefly, 2×10^4 cells were seeded on top of the polycarbonate filters, and 0.5 ml of growth medium with scrambled or MPS peptide (100 μM) was added to both the upper and lower wells. After incubation for 20 hours, filters were swabbed with a cotton swab, fixed with methanol, and then stained with Giemsa solution (Sigma). The cells attached to the lower surface of the filter were counted under a light microscope (10× magnification).
Cells were seeded onto 96-well plates at a density of 5-10×10^3 cells per well and cultured for the indicated treatment. Cell proliferation was evaluated using a MTS assay kit (Promega, Madison, Wis.). Twenty microliters of the combined MTS/PMS solution was added into each well, incubated for 3 hours at 37° C., and the absorbance was measured at 490 nm by using an ELISA reader. […] After 72 hours, both attached and detached cells were collected and then stained with 0.2% trypan blue (0.1% final concentration), and the number of trypan blue-positive and -negative cells was counted using a haemocytometer under low-power microscopy. […]

With KKKKKRFSFKKSFKLSGFSFKKNKK [MPS peptide], the Cell viability entry in assay [1] is reported as “very effective in decreasing cell viability”. In addition, the “fibroblastic lesions and deposited extracellular matrix in the lungs” value in assay [2] is “decreases of fibroblastic lesions and deposited extracellular matrix”. Besides, the PIP3 levels result in assay [3] is listed as “reduced”. Moreover, in assay [4], the cell motility entry is reported as “reduces” and the “proliferation (colony-forming ability)” value is recorded as “reduces”.

The values are drawn from US20220267390A1, “MPS MODIFIED PEPTIDES AND USE THEREOF” (The Regents of the University of California, priority 2019, published 2022).
